The text below walks through data of patent publication US8318769B2, “Substituted sulfonamide compounds” (Gruenethal GmbH, priority 2008, dated 2012).

In one experiment the target is T1, bradykinin 1 receptor (B1R) of the rat (Rattus norvegicus, UniProt P97583).
T1 construct: expressed in transfected cells
T1 sequence (P97583 1-337): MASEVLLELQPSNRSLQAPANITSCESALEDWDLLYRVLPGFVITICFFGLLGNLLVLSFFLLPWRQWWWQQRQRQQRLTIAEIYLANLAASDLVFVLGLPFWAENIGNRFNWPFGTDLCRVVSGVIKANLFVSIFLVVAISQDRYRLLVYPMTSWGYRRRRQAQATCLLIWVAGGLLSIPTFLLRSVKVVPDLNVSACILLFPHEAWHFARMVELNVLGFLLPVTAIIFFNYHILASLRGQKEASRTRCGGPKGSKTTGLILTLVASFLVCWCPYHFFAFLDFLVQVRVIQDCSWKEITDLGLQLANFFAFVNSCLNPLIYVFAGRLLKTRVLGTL
Put plainly: FLIPR Ca2+ assay, B1R antagonism, rat. The class given is cell-based. As to conditions: 10 μM test substance; CHO K1 cells with rat B1R gene (rB1R cells); Des-Arg9-bradykinin at EC80; % inhibition compared with the maximum achievable inhibition; 10 µM. How it is done:
The agonistic or antagonistic action of substances can be quantified on the bradykinin 1 receptor (B1R) of the human and rat species with ectopically expressing cell lines (CHO K1 cells) and with the aid of a Ca^2+-sensitive dyestuff (Fluo-4) in a fluorescent imaging plate reader (FLIPR). The figure in % activation is based on the Ca^2+ signal after addition of Lys-Des-Arg^9-bradykinin (0.5 nM) or Des-Arg^9-bradykinin (100 nM). Antagonists lead to a suppression of the Ca^2+ inflow after addition of the agonist. % inhibition compared with the maximum achievable inhibition is stated.
The agonistic or antagonistic action of substances can be determined on the bradykinin 1 receptor (B1R) of the human and rat species with the following assay. In accordance with this assay, the Ca^2+ inflow through the channel is quantified with the aid of a Ca^2+-sensitive dyestuff (type Fluo-4, Molecular Probes Europe BV, Leiden, Holland) in a fluorescent imaging plate reader (FLIPR, Molecular Devices, Sunnyvale, USA).
Chinese hamster ovary cells (CHO K1 cells) transfected stably with the human B1R gene (hB1R cells) or the B1R gene of the rat (rB1R cells) are used. For functional studies, these cells are plated out on black 96-well plates with a clear base (BD Biosciences, Heidelberg, Germany or Greiner, Frickenhausen, Germany) in a density of 20,000-35,000 cells/well. The cells are left overnight at 37° C. and 5% CO2 in culture medium (hB1R cells: Nutrient Mixture Ham's F12, Gibco Invitrogen GmbH, Karlsruhe, Germany or DMEM, Sigma-Aldrich, Taufkirchen, Germany; rB1R cells: D-MEM/F12, Gibco Invitrogen GmbH, Karlsruhe, Germany) with 10 vol. % FBS (foetal bovine serum, Gibco Invitrogen GmbH, Karlsruhe, Germany or PAN Biotech GmbH, Aidenbach, Germany).
On the following day, the cells are loaded for 60 min at 37° C. with 2.13 μM Fluo-4 (Molecular Probes Europe BV, Leiden, Holland) in HBSS buffer (Hank's buffered saline solution, Gibco Invitrogen GmbH, Karlsruhe, Germany) with 2.5 mM probenecid (Sigma-Aldrich, Taufkirchen, Germany) and 10 mM HEPES (Sigma-Aldrich, Taufkirchen, Germany). The plates are then washed 2× with HBSS buffer, and HBSS buffer which additionally contains 0.1% BSA (bovine serum albumin; Sigma-Aldrich, Taufkirchen, Germany), 5.6 mM glucose and 0.05% gelatine (Merck KGaA, Darmstadt, Germany) is added. After a further incubation of 20 minutes at room temperature, the plates are inserted into the FLIPR for the Ca^2+ measurement.
Alternatively, the plates are washed with buffer A (15 mM HEPES, 80 mM NaCl, 5 mM KCl, 1.2 mM CaCl2, 0.7 mM MgSO4, 2 g/l glucose, 2.5 mM probenecid), buffer A is added and the plates are loaded with 2.5 μM Fluo-4 and 0.025% Pluronic F127 (Sigma-Aldrich, Taufkirchen, Germany). Thereafter, the cells are washed 2× with buffer A and incubated for 30 minutes with buffer A, which additionally contains 0.05% BSA and 0.05% gelatine, at room temperature and thereafter inserted into the FLIPR for the Ca^2+ measurement.
The Ca^2+-dependent fluorescence is measured here before and after addition of substances (λex=488 nm, λem=540 nm). Quantification is by measurement of the highest fluorescence intensity (FC, fluorescence counts) over time.
The FLIPR protocol consists of 2 additions of substance. Test substances (10 μM) are first pipetted on to the cells and the Ca^2+ inflow is compared with the control (hB1R: Lys-Des-Arg^9-bradykinin >=50 nM; rB1R: Des-Arg^9-bradykinin 10 μM). This gives the figure in % activation based on the Ca^2+ signal after addition of Lys-Des-Arg^9-bradykinin (>=50 nM) or Des-Arg^9-bradykinin (10 μM).
After incubation for 10-20 minutes, Lys-Des-Arg^9-bradykinin (hB1R) or Des-Arg^9-bradykinin (rB1R) in the concentration of the EC80 is applied and the inflow of Ca^2+ is likewise determined. Antagonists lead to a suppression of the Ca^2+ inflow. % inhibition compared with the maximum achievable inhibition is calculated. […]
For the compound `COc1cc(C)c(S(=O)(=O)N2CCCCC2CCOCC(=O)N2CCC(OCCN3CCCC3)(c3cccnc3)CC2)c(C)c1` (stereo not shown) [Example 124, 2-[2-[1-[(4-methoxy-2,6-dimethyl-phenyl)sulfonyl]-piperidin-2-yl]-ethoxy]-1-[4-pyridin-3-yl-4-(2-pyrrolidin-1-yl-ethoxy)-piperidin-1-yl]-ethanone], the “B1R antagonism, rat [10 μM] % inhibition” value is on record as 98%.
The same measure, in the same setting: then `O=C(COCC1CCc2ccccc2N1S(=O)(=O)c1ccc2ccccc2c1)N1CCC(OCCN2CCCC2)(c2cccnc2)CC1` (stereo not shown) [Example 130, 2-[[1-(naphthalen-2-ylsulfonyl)-1,2,3,4-tetrahydro-quinolin-2-yl]-methoxy]-1-[4-pyridin-3-yl-4-(2-pyrrolidin-1-yl-ethoxy)-piperidin-1-yl]-ethanone], with 83%.

The experiment is the same for the next values; noted with them: CHO-K1, 10 μM test substance; CHO K1 cells with rat B1R gene (rB1R cells); Des-Arg9-bradykinin at EC80; % inhibition compared with the maximum achievable inhibition; read-out: B1R antagonism, rat [10 μM] % inhibition.
For orientation: inhibition means how much of the control response was suppressed. On to `O=C(COCC1CCc2ccccc2N1S(=O)(=O)c1ccc2ccccc2c1)N1CCC(OCCN2CCCC2)(c2cccnc2)CC1` (stereo not shown) [Example 129, 2-[[1-(naphthalen-2-ylsulfonyl)-1,2,3,4-tetrahydro-quinolin-2-yl]-methoxy]-1-[4-pyridin-3-yl-4-(2-pyrrolidin-1-yl-ethoxy)-piperidin-1-yl]-ethanone], for which the inhibition at 10 µM worked out at 92%.
On the same count and under the same terms, then `Cc1cc(S(=O)(=O)N2CCCCC2CCC(=O)N2CCC(OCCN3CCCC3)(c3ccc(C(F)(F)F)cc3)CC2)c(C)cc1Cl` (stereo not shown) [Example 75, 3-[1-[(4-chloro-2,5-dimethyl-phenyl)sulfonyl]-piperidin-2-yl]-1-[4-(2-pyrrolidin-1-yl-ethoxy)-4-[4-(trifluoromethyl)-phenyl]-piperidin-1-yl]-propan-1-one], with 96%; and `COc1cc(C)c(S(=O)(=O)N2CCCCC2COCC(=O)N2CCC(OCCN3CCCC3)(c3ccc(F)cc3)CC2)c(C)c1` (stereo not shown) [Example 64, 1-[4-(4-fluorophenyl)-4-(2-pyrrolidin-1-yl-ethoxy)-piperidin-1-yl]-2-[[1-[(4-methoxy-2,6-dimethyl-phenyl)sulfonyl]-piperidin-2-yl]-methoxy]-ethanone], with 98%.
Same read-out and setting: then `Cc1cccc(Cl)c1S(=O)(=O)N1CCCCC1COCC(=O)N1CCC(OCCN2CCCC2)(c2ccc(C(F)(F)F)cc2)CC1` (stereo not shown) [Example 69, 2-[[1-[(2-chloro-6-methyl-phenyl)sulfonyl]-piperidin-2-yl]-methoxy]-1-[4-(2-pyrrolidin-1-yl-ethoxy)-4-[4-(trifluoromethyl)-phenyl]-piperidin-1-yl]-ethanone], with 97%; and `O=C(CC(NS(=O)(=O)c1ccc2ccccc2c1)c1ccccc1)N1CCC(OCCN2CCCC2)(c2ccc(F)cc2)CC1` (stereo not shown) [Example 76, N-[3-[4-(4-fluorophenyl)-4-(2-pyrrolidin-1-yl-ethoxy)-piperidin-1-yl]-3-oxo-1-phenyl-propyl]-naphthalene-2-sulfonic acid amide], with 90%.
Same read-out and setting: under `COc1cc(C)c(S(=O)(=O)N2CCCCC2CCCC(=O)N2CCC(OCCN3CCCC3)(c3ccc(F)cc3)CC2)c(C)c1` (stereo not shown) [Example 78, 1-[4-(4-fluorophenyl)-4-(2-pyrrolidin-1-yl-ethoxy)-piperidin-1-yl]-4-[1-[(4-methoxy-2,6-dimethyl-phenyl)sulfonyl]-piperidin-2-yl]-butan-1-one] stands 95%; under `O=C(COCC1CCc2ccccc2N1S(=O)(=O)c1ccc2ccccc2c1)N1CCC(OCCN2CCCC2)(c2cccc(F)c2)CC1` (stereo not shown) [Example 131, 1-[4-(3-fluorophenyl)-4-(2-pyrrolidin-1-yl-ethoxy)-piperidin-1-yl]-2-[[1-(naphthalen-2-ylsulfonyl)-1,2,3,4-tetrahydro-quinolin-2-yl]-methoxy]-ethanone], 44%; under `O=C(CC1CCCCN1S(=O)(=O)c1cccc(C(F)(F)F)c1)N1CCC(OCCN2CCCC2)(c2ccc(C(F)(F)F)cc2)CC1` (stereo not shown) [Example 73, 1-[4-(2-pyrrolidin-1-yl-ethoxy)-4-[4-(trifluoromethyl)-phenyl]-piperidin-1-yl]-2-[1-[[3-(trifluoromethyl)phenyl]sulfonyl]-piperidin-2-yl]-ethanone], 100%.
Take `O=C(CC1CCCCN1S(=O)(=O)c1cccc(C(F)(F)F)c1)N1CCC(OCCN2CCCC2)(c2ccc(F)cc2)CC1` (stereo not shown) [Example 72, 1-[4-(4-fluorophenyl)-4-(2-pyrrolidin-1-yl-ethoxy)-piperidin-1-yl]-2-[1-[[3-(trifluoromethyl)phenyl]sulfonyl]-piperidin-2-yl]-ethanone]: the inhibition at 10 µM turned out to be 62%.
Still for that read-out and setting: then `Cc1cccc(Cl)c1S(=O)(=O)N(CCOCC(=O)N1CCC(OCCN2CCCC2)(c2ccc(F)cc2)CC1)C1CC1` [Example 70, 2-chloro-N-cyclopropyl-N-[2-[2-[4-(4-fluorophenyl)-4-(2-pyrrolidin-1-yl-ethoxy)-piperidin-1-yl]-2-oxo-ethoxy]-ethyl]-6-methyl-benzenesulfonic acid amide], with 98%.
Still for that read-out and setting: then `CN(CCCC(=O)N1CCC(OCCN2CCCC2)(c2cccc(F)c2)CC1)S(=O)(=O)c1cccc(C(F)(F)F)c1` [Example 127, N-[4-[4-(3-fluorophenyl)-4-(2-pyrrolidin-1-yl-ethoxy)-piperidin-1-yl]-4-oxo-butyl]-N-methyl-3-(trifluoromethyl)-benzenesulfonic acid amide], with 49%; and `O=C(CC1COc2ccccc2N1S(=O)(=O)c1ccc(Cl)cc1Cl)N1CCC(OCCN2CCCC2)(c2cccc(F)c2)CC1` (stereo not shown) [Example 128, 2-[4-[(2,4-dichlorophenyl)sulfonyl]-3,4-dihydro-2H-[1,4]benzoxazin-3-yl]-1-[4-(3-fluorophenyl)-4-(2-pyrrolidin-1-yl-ethoxy)-piperidin-1-yl]-ethanone], with 41%; and `COc1cc(C)c(S(=O)(=O)N(CCOCC(=O)N2CCC(OCCN3CCCC3)(c3ccc(F)cc3)CC2)C2CC2)c(C)c1` [Example 66, N-cyclopropyl-N-[2-[2-[4-(4-fluorophenyl)-4-(2-pyrrolidin-1-yl-ethoxy)-piperidin-1-yl]-2-oxo-ethoxy]-ethyl]-4-methoxy-2,6-dimethyl-benzenesulfonic acid amide], with 97%.
The same measure, in the same setting: under `Cc1cc(S(=O)(=O)N2CCCCC2CCC(=O)N2CCC(OCCN3CCCC3)(c3ccc(F)cc3)CC2)c(C)cc1Cl` (stereo not shown) [Example 74, 3-[1-[(4-chloro-2,5-dimethyl-phenyl)sulfonyl]-piperidin-2-yl]-1-[4-(4-fluorophenyl)-4-(2-pyrrolidin-1-yl-ethoxy)-piperidin-1-yl]-propan-1-one] stands 92%.
